A word on the IC50: it is the concentration needed to halve the response being measured. What is called bioavailability is dose-corrected exposure relative to a reference, in per cent. For orientation: AUC means the area under the concentration-time curve, a measure of exposure. A high value points to high exposure. By Cmax is commonly meant the maximum level reached in the sampled fluid or tissue. Usually Tmax stands for the time at which the peak concentration occurs.

Experimental findings from patent publication US12435097B2, “Arginase inhibitors and methods of use thereof” (AstraZeneca AB, priority 2019, dated 2025) are described below.

One data set concerns the target T1, Human Arginase 1 (Homo sapiens, UniProt P05089).
T1 construct: made in house; host or cells: E. coli
T1 sequence (P05089 1-322): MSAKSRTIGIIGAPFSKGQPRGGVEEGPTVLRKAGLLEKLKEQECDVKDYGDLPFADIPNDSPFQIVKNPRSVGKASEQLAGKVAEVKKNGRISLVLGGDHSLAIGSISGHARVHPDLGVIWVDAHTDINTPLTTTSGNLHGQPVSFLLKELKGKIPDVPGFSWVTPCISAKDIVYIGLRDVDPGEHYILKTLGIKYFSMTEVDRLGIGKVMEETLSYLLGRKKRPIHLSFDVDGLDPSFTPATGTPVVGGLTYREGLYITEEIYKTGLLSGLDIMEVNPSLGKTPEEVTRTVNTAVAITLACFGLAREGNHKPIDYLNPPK
The data set can be described thus: Human Arginase 1 enzyme inhibition (thioarginine/DTNB absorbance at 412 nm). The class given is biochemical. As to conditions: recombinant enzyme from E. coli, 5 nM; 30 min pre-incubation, 60 min reaction. An excerpt: (§1) The inhibitory effects of Examples 1 to 12 on the activity of Human Arginase 1 and Arginase 2 activity were quantified by measuring the formation of the thiol group from thioarginine using recombinant Arginase 1 or Arginase 2 produced from E. coli. The thiol group was detected with Ellman's reagent, 5,5′-dithiobis(2-nitrobenzoic acid) (DTNB). DTNB reacts with the thiol to give the mixed disulfide and 2-nitro-5-thiobenzoic acid (TNB) which is quantified by the absorbance of the anion (TNB^2−) at 412 nm.
(§2) The assays were run in clear 384 well plates (Greiner cat no: 781101). Various concentrations of Examples 1 to 12 in 300 nL DMSO were dispensed to assay plates using an Echo acoustic dispenser immediately followed by plate sealing and centrifugation. Two pre-mixes were prepared from reagents thawed immediately before addition to assay plates. Pre-mix one comprised human Arginase 1 or human Arginase 2, at a final concentration of 5 nM and 0.5 mM DTNB in assay buffer, 45 mM HEPES pH7.5, brij 35, 0.045% (w/v) and 100 μM MnCl2. Pre-mix two comprised freshly thawed 0.5 mM thioarginine in assay buffer. Fifteen microlitres of pre-mix one was dispensed to assay plates containing Examples 1 to 12, centrifuged and incubated for 30 minutes at room temperature prior to adding fifteen microlitres of pre-mix two.
(§3) Assay plates were centrifuged prior to reading absorbance at 412 nm in a Pherastar multi-mode plate reader to collect data at time point 0 (T0). The plates were incubated at room temperature for 60 min prior to reading again to collect data at time point 1 (T1). Data is derived by subtracting the A412 signal measured at T0 (time point 0) from that measured at T1 (time point 1). The data was transformed to % effect using the equation: Compound % effect=100*[(X−min)/(max−min)], where X represents the normalized value for the compound based on the Min (vehicle) and Max (reference compound) inhibition control.
(§4) The concentration of Examples 1 to 12 that inhibited the activity by 50% (i.e. the IC50) was calculated by plotting the % effect versus test compound concentration and fitting the data using the Genedata Screener Smart fit algorithm.

The next data set deals with T2, Human Arginase 2 (Homo sapiens, UniProt P78540).
T2 construct: made in house; host or cells: E. coli
T2 sequence (P78540 23-354): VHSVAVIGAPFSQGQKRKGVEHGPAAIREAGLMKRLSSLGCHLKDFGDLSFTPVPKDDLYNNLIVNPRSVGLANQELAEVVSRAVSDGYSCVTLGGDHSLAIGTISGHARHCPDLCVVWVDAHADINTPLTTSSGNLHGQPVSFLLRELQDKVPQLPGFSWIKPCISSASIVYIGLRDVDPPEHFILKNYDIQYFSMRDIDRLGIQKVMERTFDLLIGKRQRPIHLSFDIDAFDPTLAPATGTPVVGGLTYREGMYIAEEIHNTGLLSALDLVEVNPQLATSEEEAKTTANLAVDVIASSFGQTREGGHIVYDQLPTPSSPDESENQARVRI
The data set can be described thus: Human Arginase 2 enzyme inhibition (thioarginine/DTNB absorbance at 412 nm). It counts as biochemical. As to conditions: recombinant enzyme from E. coli, 5 nM; 30 min pre-incubation, 60 min reaction.
Description: as §1, §2, §3, §4

The nature of data set [1]: Bioavailability / pharmacokinetic study in male rats (IV and PO). The class given is in vivo. As to conditions: plasma; for bioavailability / AUC / Cmax / Tmax: male, rat, po, 5 mg/kg; for clearance / Vd: male rat; for Vd: read-out: Vdss. The method, then:
Examples 2, 3, and 4 are prodrug forms of Example 1. […] Example 2 was formulated in 0.9% w/v saline pH 4 (adjusted with 1M HCl) for IV dosing. The formulation was dosed at 2 mg/kg by femoral catheter to two male rats each (170-250 g). Jugular vein catheter serial blood samples were taken at 0.033, 0.083, 0.167, 0.5, 1, 2, 4, 8, and 24 hrs post-dose. For PO dosing, Example 2 was formulated in deionized water pH 4 (adjusted with 1M HCl) and dosed at 5 mg/kg by oral gavage to two male rats each (170-250 g). Serial blood samples were taken by jugular vein catheter at 0.25, 0.5, 1, 1.5, 2, 3, 4, 8, and 24 hrs post dose. Plasma samples were generated from blood using low speed centrifugation. A single set of calibration standards containing Example 1 and Example 2 were prepared by spiking blank plasma. The samples and standards were extracted by precipitation with two volumes of acetonitrile followed by centrifugation. The results obtained were used to determine the Cl (mL/min/kg), Vdss (L/kg), Cmax (μM), AUC (μM h), tmax (h), and % F for both Example 1 and Example 2. Absolute bioavailability was determined by comparing the PO dose normalized AUC of Example 1 when dosed as Example 2, versus the dose normalized IV AUC of Example 1 when dosed as Example 1. Where appropriate, measured and not nominal doses were used to calculate bioavailability. In an analogous fashion, the same procedure was repeated for Examples 3 and 4.

The mark [2] stands for this setting: PO 5 mg/kg of Example 2, Example 1 measured when dosed as pro-drug.
[3] abbreviates: PO dosing of Example 3, Example 1 measured when dosed as pro-drug.
The mark [4] stands for this setting: PO dosing of Example 4, Example 1 measured when dosed as pro-drug.
[5] abbreviates: PO 5 mg/kg vs IV 2 mg/kg, pro-drug measured when dosed as pro-drug.
Where [6] appears, read: PO 5 mg/kg, pro-drug measured when dosed as pro-drug.
[7] abbreviates: IV 2 mg/kg, pro-drug measured when dosed as pro-drug.

Each structure is given as a SMILES string. Read-outs that look alike come from different tables or passages of the source.

Regarding `N[C@@H]1CCN[C@](CCCCB(O)O)(C(=O)O)C1` (single isomer, unassigned) [Example 12], the IC50 at Human Arginase 1 amounted to 2200 nM; at Human Arginase 2, 2540 nM.

Regarding `N[C@H]1CCN[C@](CCCCB(O)O)(C(=O)O)C1` (single isomer, unassigned; enantiomer 1) [Example 10, Anti-4-amino-2-(4-boronobutyl)piperidine-2-carboxylic acid enantiomer 1], the IC50 was 20100 nM on Human Arginase 1 and 53100 nM at Human Arginase 2.

In the case of `N[C@H]1CCN[C@](CCCCB(O)O)(C(=O)O)C1` (single isomer, unassigned; enantiomer 2) [Example 11, anti-4-amino-2-(4-boronobutyl)piperidine-2-carboxylic acid enantiomer 2], the IC50 turned out to be 3150 nM at Human Arginase 1 and 4370 nM at Human Arginase 2.

With `N[C@H]1CCN[C@@](CCCCB(O)O)(C(=O)O)C1` [Example 1, (2R,4S)-4-amino-2-(4-boronobutyl)piperidine-2-carboxylic acid], the bioavailability in data set [1] (Example 1 after PO Example 2 vs IV AUC of Example 1 dosed as Example 1, dose normalized) is 82%; in data set [1] (Example 1 after PO Example 3 vs IV AUC of Example 1 dosed as Example 1, dose normalized), 78%; in data set [1] (Example 1 after PO Example 4 vs IV AUC of Example 1 dosed as Example 1, dose normalized), 20%. Further, the AUC in data set [1] (setting [2]) turned out to be 23.7 µM·h; in data set [1] (setting [3]), 25.7 µM·h; in data set [1] (setting [4]), 6.1 µM·h. Further, the Cmax turned out to be 2500 nM in data set [1] (setting [2]), 2000 nM in data set [1] (setting [3]) and 1000 nM in data set [1] (setting [4]). The Tmax stood at 2.3 h in data set [1] (setting [2]), 2.5 h in data set [1] (setting [3]) and 1.5 h in data set [1] (setting [4]). In addition, the clearance in data set [1] (IV, Example 1 dosed as payload) is 8.5 mL/min/kg. Besides, the Vd in data set [1] (IV, Example 1 dosed as payload) was found to be 0.23 L/kg. Further, the figures for the IC50 on Human Arginase 1 and on Human Arginase 2 were 3 nM and 4 nM, respectively.

The molecule `CC(C)[C@H](N)C(=O)N[C@H]1CCN[C@@](CCCCB(O)O)(C(=O)O)C1` [Example 2, (2R,4S)-4-((S)-2-amino-3-methylbutanamido)-2-(4-boronobutyl)piperidine-2-carboxylic acid] had a bioavailability in data set [1] (setting [5]) of 2%. In data set [1] (setting [6]), the AUC is 0.29 µM·h, the Cmax was found to be 350 nM and the Tmax is 0.25 h. Besides, in data set [1] (setting [7]), the clearance is 16.3 mL/min/kg and the Vd amounted to 0.25 L/kg. In addition, at Human Arginase 1, the IC50 turned out to be 29 nM. Also, on Human Arginase 2, the IC50 was determined as 24 nM.

`NCC(=O)N[C@H]1CCN[C@@](CCCCB(O)O)(C(=O)O)C1` [Example 3, (2R,4S)-4-(2-aminoacetamido)-2-(4-boronobutyl)piperidine-2-carboxylic acid] yielded a bioavailability in data set [1] (setting [5]) of 5.2%. Further, in data set [1] (setting [6]), the AUC amounted to 1.1 µM·h, the peak level (Cmax) was 640 nM and the Tmax amounted to 0.75 h. In data set [1] (setting [7]), the clearance is 13.5 mL/min/kg and the Vd stood at 0.22 L/kg. The IC50 on Human Arginase 1 stood at 80 nM. The half-maximal inhibitory concentration (IC50) on Human Arginase 2 was 59 nM.

As for `C[C@H](N)C(=O)N[C@H]1CCN[C@@](CCCCB(O)O)(C(=O)O)C1` [Example 4, (2R,4S)-4-[[(2S)-2-aminopropanoyl]amino]-2-(4-boronobutyl)piperidine-2-carboxylic acid], the clearance in data set [1] (setting [7]) was found to be 180 mL/min/kg. Also, the IC50 on Human Arginase 1 was determined as 35 nM; at Human Arginase 2 it was 27 nM.

As to `CC[C@H](N)C(=O)N[C@H]1CCN[C@@](CCCCB(O)O)(C(=O)O)C1` [Example 5, (2R,4S)-4-[[(2S)-2-aminobutanoyl]amino]-2-(4-boronobutyl)piperidine-2-carboxylic acid], the results for the IC50 at Human Arginase 1 and on Human Arginase 2 were 25 nM and 21 nM, respectively.

With `CC(C)C[C@H](N)C(=O)N[C@H]1CCN[C@@](CCCCB(O)O)(C(=O)O)C1` [Example 6, (2R,4S)-4-[[(2S)-2-amino-4-methyl-pentanoyl]amino]-2-(4-boronobutyl)piperidine-2-carboxylic acid], the IC50 is 18 nM at Human Arginase 1 and 15 nM at Human Arginase 2.

Regarding `CC[C@H](C)[C@H](N)C(=O)N[C@H]1CCN[C@@](CCCCB(O)O)(C(=O)O)C1` [Example 7, (2R,4S)-4-[[(2S,3S)-2-amino-3-methyl-pentanoyl]amino]-2-(4-boronobutyl)piperidine-2-carboxylic acid], the IC50 on Human Arginase 1 is 23 nM; at Human Arginase 2 it was 21 nM.

As for `CC(C)(C)[C@H](N)C(=O)N[C@H]1CCN[C@@](CCCCB(O)O)(C(=O)O)C1` [Example 8, (2R,4S)-4-[[(2S)-2-amino-3,3-dimethyl-butanoyl]amino]-2-(4-boronobutyl)piperidine-2-carboxylic acid], the values for the IC50 on Human Arginase 1 and on Human Arginase 2 were 31 nM and 24 nM, respectively.

Take `CC(C)[C@@H](N)C(=O)N[C@H]1CCN[C@@](CCCCB(O)O)(C(=O)O)C1` [Example 9, (2R,4S)-4-[[(2R)-2-amino-3-methyl-butanoyl]amino]-2-(4-boronobutyl)piperidine-2-carboxylic acid]: the IC50 was determined as 234 nM at Human Arginase 1 and 180 nM at Human Arginase 2.
